Experimental data: patent publication US5466675A, “Immunological activity of rhamnolipids” (priority 1992, dated 1995)

Assays:
[1] = tested on: carboxypeptidase A; test: enzyme inhibition, carboxypeptidase A; assay type: biochemical
Method: (§1) Rhamnolipid (II) was tested in vitro against a wide array of enzymes.
The following enzymes were inhibited at the various rhamnolipid concentrations indicated:
(§2) All enzyme assays were done spectrophotometrically by computer linked automatic microplate reader (Labsystem Multiskan) and Diode Array spectrophotometer (Perkin Elmer).

[2] = tested on: alpha-chymotrypsin; test: enzyme inhibition, alpha-chymotrypsin; assay type: biochemical
Method: as §1, §2

[3] = tested on: Dermatitis circumscripta unilocularis; test: clinical treatment of dermatitis circumscripta unilocularis; assay type: in vivo, human; conditions: one patient
Method: (§3) 17 patients, 11 men and 6 women, were treated with rhamnolipid (II). Among these, 12 patients were suffering from Psoriasis, 2 from Neurodermitis, 1 from Lichen ruber planus, 1 from Serborhoic dermatitis and one from Dermatitis circumscripta unilocularis eczematoides.

[4] = tested on: Candida albicans; test: immunorestoration: immunosuppression with cyclophosphamide and infection with Candida albicans; assay type: in vivo, mouse (ICR, female); conditions: for Survivor No.: n = 10
Source text: […] One day after the last immunosuppressant dose, the mice were challenged with a suspension of C. albicans sufficient to result in 90 to 100 percent mortality within 10 days in the vehicle treated control group. A greater than 30 percent survival for any drug treated group is considered significant, and possibly a result of immunorestorant activity.

[5] = tested on: coxsackie B2 virus; test: effect on viruses, coxsackie B2; assay type: cell-based; conditions: concentrations ≤100 ug/ml
Method: Tests were performed according to D. A. Vanden Berghe et al., Inst. Pasteur 84,101 (1986). Rhamnolipid (II) was toxic for VERO cells in concentrations ≥200 ug/ml, and cytotoxic on MT4 cells in concentrations >169.40 ug/ml.

[6] = tested on: Lichen ruber planus; test: clinical treatment of lichen ruber planus; assay type: in vivo, human; conditions: one patient
Method: as §3

[7] = tested on: alkalinephosphatase; test: enzyme inhibition, alkalinephosphatase; assay type: biochemical
Method: as §1, §2

[8] = tested on: Candida albicans; test: minimum inhibitory concentration, Candida albicans; assay type: cell-based; conditions: in tested medium
Source text: (§4) The Minimum inhibitory concentration (MIC) of Rhamnolipid II for Candida albicans, Escherichia coli, Staphylococcus aureus and Pseudomonas aeruginosa was >0.5% in tested medium.

[9] = tested on: Escherichia coli; test: minimum inhibitory concentration, Escherichia coli; assay type: cell-based; conditions: in tested medium
Source text: as §4

[10] = tested on: Lichen ruber planus; conditions: 1% rhamnolipid ointment; Belgium patent No. 1,005,704; cited from earlier work
[11] = tested on: Neurodermitis; test: clinical treatment of neurodermitis; assay type: in vivo, human; conditions: twice a day; occlusions up to 24 hours
Method: Two patients with Neurodermitis were treated at the beginning of 1992. Rhamnolipid II was applied on affected regions twice a day; occlusions were applied as well (up to 24 hours).
The treatment and monitoring of patients was, again, a "double blind" experiment. Other affected regions where corticosteroids were applied were used for comparison.

[12] = tested on: oxazolone-induced delayed type hypersensitivity; test: immunosuppression (cellular): oxazolone-induced delayed type hypersensitivity; assay type: in vivo, mouse (ICR, female); conditions: for Swelling (R -L) / ear thickness, Left Ear (No Oxa.) / ear thickness, Right Ear (24 hrs Oxa.): X +/- SEM
Method: The shaved abdominal surface of groups of 5 mice were sensitized by application of 0.1 ml of 5% oxazolone. The test substance was administered i.p after 1 hour and then daily for 5 consecutive doses. After an additional 4 days, the animals were challenged by application of 25 ul of 5% oxazolone to the right ear. Twenty-four hours later, ear thickness was measured with a Dyer Model micrometer gauge.
A 50 percent or greater decrease in drug-treated versus control animals is considered significant immunosuppressant activity.

[13] = IP 0.1 × 3 mg/kg + cyclophosphamide
[14] = IP 1 × 3 mg/kg + cyclophosphamide
[15] = IP 10 × 3 mg/kg + cyclophosphamide
[16] = IP 100 × 3 mg/kg + cyclophosphamide

## CCCCCCCC(CC(=O)O)OC(=O)CC(CCCCCCC)O[C@@H]1O[C@@H](C)[C@H](O)[C@@H](O)[C@H]1O[C@@H]1O[C@@H](C)[C@H](O)[C@@H](O)[C@H]1O (stereo partly drawn) [Rhamnolipid (II), (alpha-L-rhamnopyranosyl-(1,2)alpha-L-rhamnopyranosyl)-3-hydroxydecanoyl-3-hydroxydecanoic acid]
[1]
  concentration at which the enzyme was inhibited: 1 mg/mL
[2]
  effect on enzyme: no effect
[3]
  cure: completely cured
[4]; [13]
  Death, days post-inoculum 0-1: 2 #/10 Mice
  Death, days post-inoculum 2-3: 1 #/10 Mice
  Death, days post-inoculum 4-6: 1 #/10 Mice
  Death, days post-inoculum 7-9: 2 #/10 Mice
  Response Inc. %: 20%
  Survivor No.: 4
[4]; [14]
  Death, days post-inoculum 0-1: 2 #/10 Mice
  Death, days post-inoculum 2-3: 2 #/10 Mice
  Death, days post-inoculum 4-6: 1 #/10 Mice
  Death, days post-inoculum 7-9: 1 #/10 Mice
  Response Inc. %: 20%
  Survivor No.: 4
[4]; [15]
  Death, days post-inoculum 0-1: 2 #/10 Mice
  Death, days post-inoculum 2-3: 1 #/10 Mice
  Death, days post-inoculum 4-6: 1 #/10 Mice
  Death, days post-inoculum 7-9: 0 #/10 Mice
  Response Inc. %: 40%
  Survivor No.: 6
[4]; [16]
  Death, days post-inoculum 0-1: 1 #/10 Mice
  Death, days post-inoculum 2-3: 1 #/10 Mice
  Death, days post-inoculum 4-6: 1 #/10 Mice
  Death, days post-inoculum 7-9: 0 #/10 Mice
  Response Inc. %: 50%
  Survivor No.: 7
[4]; summary, no dose stated
  in vivo immunorestoration activity: very strong
[5]
  antiviral activity: no activity
[6]
  cure: completely cured
[7]
  effect on enzyme: no effect
[8]
  Minimum inhibitory concentration (MIC): > 0.5%
[9]
  Minimum inhibitory concentration (MIC): > 0.5%
[10]
  activity in treatment of Lichen rubber planus: strong activity
[11]
  improvements versus corticosteroids: observed rapidly, faster than in cases when corticosteroids were applied
  occurrence of relapses versus local corticosteroids: a bit later
[12]; IP 0.1 × 5 mg/kg
  Swelling Inh. %: 16%
  Swelling (R -L): 19.6 +/- 2.9 × 0.01 mm
  ear thickness, Left Ear (No Oxa.): 21.0 +/- 0.8 × 0.01 mm
  ear thickness, Right Ear (24 hrs Oxa.): 40.6 +/- 3.0 × 0.01 mm
[12]; IP 1 × 5 mg/kg
  Swelling Inh. %: 22%
  Swelling (R -L): 20.2 +/- 1.7 × 0.01 mm
  ear thickness, Left Ear (No Oxa.): 21.0 +/- 0.5 × 0.01 mm
  ear thickness, Right Ear (24 hrs Oxa.): 41.2 +/- 1.8 × 0.01 mm
[12]; IP 10 × 5 mg/kg
  Swelling Inh. %: 19%
  Swelling (R -L): 20.8 +/- 1.2 × 0.01 mm
  ear thickness, Left Ear (No Oxa.): 20.8 +/- 0.7 × 0.01 mm
  ear thickness, Right Ear (24 hrs Oxa.): 41.6 +/- 1.2 × 0.01 mm
[12]; IP 100 × 5 mg/kg
  Swelling Inh. %: 26%
  Swelling (R -L): 19.2 +/- 0.6 × 0.01 mm
  ear thickness, Left Ear (No Oxa.): 19.0 +/- 0.9 × 0.01 mm
